Like-named read-outs stand apart in the source and are kept apart here.

In test [1] the test system is Bone Marrow Stroma. Put plainly: Cytotoxicity assay, bone marrow stroma. The class given is cell-based, human. The settings on record: Homo sapiens, 96 h; bone marrow stroma (control for non-leukemia cytotoxicity); four days in culture; ± SD, three experiments. The method, then:
(§1) For cytotoxicity profiling of Aurora kinase inhibitors against leukemia cell lines, inhibitors or vehicle control (DMSO, Sigma-Aldrich) were diluted in 100 µl of Opti-MEM per well in 96 well plates (Grenier Bio-One, Monroe, North Carolina) in triplicate at final concentrations ranging from 1×10^−6 to 10 µM. 1×10^4 cells per well were seeded and plates were incubated for 4 days. Following incubation for 4 days, cell survival was quantified by Alamar blue assay (Invitrogen) or automated inverted microscopy using the Celigo Cell Cytometer (Cyntellect, San Diego, California). […] During this period of incubation, the absorbance at 570–620 nm was measured (Opsys MR Plate Reader, Dynex Technologies, Chantilly, Virginia) at various time points, depending on the cell line or sample. Percent survival was calculated by comparing the absorbance ratio of the test well to the control well multiplied by 100%, as indicated in the following formula: […]
(§2) For automated inverted microscopy, the number of cells in each well was determined using the direct cell counting application as described previously. Briefly, following adjustment of image acquisition settings for bright-field imaging, the wells containing cells and appropriate dilutions of inhibitors were individually scanned. Based on these images, analysis parameters, including intensity threshold and cell diameter, were modified for optimal inclusion of viable cells in treated and control wells. These parameters were applied for subsequent replicates involving the same leukemia cell line or sample. The percent survival was then calculated as a ratio of the number of cells in treated wells to the number of cells in control wells multiplied by 100%. Given that Aurora kinase inhibitors interfere with cytokinesis, cells that are committed to death may still contain enlarging but intact cytoplasmic content before the eventual loss of cytoplasmic membrane integrity. The accuracy of Alamar blue assay may be, in theory, affected by the timing of these events.

Test [2] concerns C1 B-ALL cell line. Nature of the test: Cytotoxicity assay, C1. Type of test: cell-based, human. The settings on record: Homo sapiens, 96 h, four days in culture, Alamar blue assay or automated microscopy, ± SD, three experiments. Here is the method:
(§3) Cell lines were cultured in Opti-MEM medium (Gibco, Life Technologies Corporation, Burlington, Ontario) supplemented with 10% heat inactivated fetal bovine serum (FBS) (Gibco), 100 units/ml penicillin and 100 units/ml streptomycin (Gibco) and 0.05 mM 2-mercaptoethanol (Sigma-Aldrich, Oakville, Ontario) in T25 flasks (Nalge Nunc, Rochester, New York) or T75 flasks (Corning Incorporated, Corning, New York). All cell cultures were maintained at 37°C in a humidified incubator with 5% CO2.
as §1, §2

In test [3] the test system is UOCB1 B-ALL cell line. Nature of the test: Cytotoxicity assay, UOCB1. The note with it: Homo sapiens, UoC-B1, 96 h, four days in culture, Alamar blue assay or automated microscopy, ± SD, three experiments. Type of test: cell-based, human. Here is the method: as §3, §1, §2
Test [4] has as its system Patient #3 AML/CML primary leukemia cells. Put plainly: Cytotoxicity assay, primary sample Patient #3. The class given is cell-based, human. The note with it: Homo sapiens, 96 h, four days in culture, Alamar blue assay or automated microscopy, one complete study. The method, then: (§4) These include B-ALL (Patient #1), relapsed AML (Patient #2), AML/CML (Patient #3), infant ALL (Patient #4), and initial ALL presenting with secondary AML (Patient #5). […] The diluted sample was then layered on a Ficoll-Paque (GE Healthcare, Piscataway, New Jersey) gradient at a 1∶2 ratio of Ficoll to diluted sample. Samples were then centrifuged 1800 rpm for 20 minutes at room temperature. The buffy coat was removed with a pipette and transferred to a new centrifuge tube and diluted with PBS. After an additional centrifugation at 1200 rpm, the white blood cell pellet was washed with PBS and centrifuged one last time. Cells were re-suspended in Opti-MEM and viable cells were counted using trypan blue (Invitrogen, Life Technologies Corporation, Burlington, Ontario) exclusion on a haemocytometer. An identical protocol was followed for the isolation of white blood cells, referred to as “normal lymphocytes” in the following paragraphs, from healthy volunteers. Samples grown in culture for up to six months were cultured in Opti-MEM medium supplemented with 10% heat inactivated FBS, penicillin/streptomycin and 2-mercaptoethanol.
as §1, §2

For test [5], the system named is normal cells versus leukemia cell lines. Put plainly: Comparison of cytotoxicity IC50 values, normal cells versus leukemia cell lines. The class given is cell-based, human. The note with it: normal lymphocytes and bone marrow stroma versus leukemia cell lines of Table 2. The method, then: as §1, §2
Test [6] concerns SEM B-ALL cell line. Put plainly: Cytotoxicity assay, SEM. The note with it: Homo sapiens, 96 h, four days in culture, Alamar blue assay or automated microscopy, ± SD, three experiments. The class given is cell-based. Here is the method:
as §3, §1, §2
Background: The colour change of resazurin is a common sign of viable cells or microbes.

In test [7] the test system is Patient #4 infant leukemia primary cells. Nature of the test: Cytotoxicity assay, primary sample Patient #4. The class given is cell-based, human. The settings on record: Homo sapiens, 96 h, four days in culture, Alamar blue assay or automated microscopy, one complete study. The method, then: as §4, §1, §2
Test [8] deals with Molm13 AML cell line. Put plainly: Cytotoxicity assay, Molm13. Type of test: cell-based, human. The note with it: Homo sapiens, MOLM-13, 96 h, four days in culture, Alamar blue assay or automated microscopy, ± SD, three experiments. Here is the method:
as §3, §1, §2

In test [9] the test system is Patient #2 relapsed AML primary leukemia cells. Nature of the test: Cytotoxicity assay, primary sample Patient #2. The class given is cell-based, human. The note with it: Homo sapiens, 96 h, four days in culture, Alamar blue assay or automated microscopy, one complete study. Here is the method:
as §4, §1, §2

Test [10] concerns MV4-11 AML cell line. Put plainly: Cytotoxicity assay, MV4-11. The class given is cell-based, human. The note with it: Homo sapiens, 96 h; AML cell line MV4-11; four days in culture; Alamar blue assay or automated microscopy; ± SD, three experiments. The method, then: as §3, §1, §2
The test system of test [11] is Patient #1 B-ALL primary leukemia cells. Nature of the test: Cytotoxicity assay, primary sample Patient #1. Type of test: cell-based, human. The settings on record: Homo sapiens, 96 h, four days in culture, Alamar blue assay or automated microscopy, one complete study. The method, then: as §4, §1, §2
Test [12] deals with Normal Lymphocytes. Nature of the test: Cytotoxicity assay, normal lymphocytes. The class given is cell-based, human. The note with it: Homo sapiens, Lymphocyte, 96 h; normal lymphocytes (control for non-leukemia cytotoxicity); four days in culture; ± SD, three experiments. Here is the method: as §4, §1, §2
Test [13] concerns TIB-202 AML cell line. Nature of the test: Cytotoxicity assay, TIB-202. The class given is cell-based, human. The settings on record: Homo sapiens, 96 h; AML cell line TIB-202; four days in culture; Alamar blue assay or automated microscopy; ± SD, three experiments. The method, then: as §3, §1, §2
Test [14] has as its system KOPN8 B-ALL cell line. Nature of the test: Cytotoxicity assay, KOPN8. The class given is cell-based, human. The note with it: Homo sapiens, KOPN-8, 96 h, four days in culture, Alamar blue assay or automated microscopy, ± SD, three experiments. Here is the method:
as §3, §1, §2

The subject of test [15] is B1 B-ALL cell line. Put plainly: Cytotoxicity assay, B1. The class given is cell-based, human. The settings on record: Homo sapiens, 96 h, four days in culture, Alamar blue assay or automated microscopy, ± SD, three experiments. Here is the method:
as §3, §1, §2

In test [16] the test system is CEM T-ALL cell line. Put plainly: Cytotoxicity assay, CEM. Type of test: cell-based, human. The settings on record: Homo sapiens, 96 h, four days in culture, Alamar blue assay or automated microscopy, ± SD, three experiments. Here is the method: as §3, §1, §2
The subject of test [17] is Molt-3 T-ALL cell line. Put plainly: Cytotoxicity assay, Molt-3. The class given is cell-based, human. The note with it: Homo sapiens, 96 h; T-ALL cell line Molt-3; four days in culture; Alamar blue assay or automated microscopy; ± SD, three experiments. The method, then:
as §3, §1, §2

The test system of test [18] is HL-60 RA APML cell line. Put plainly: Cytotoxicity assay, HL-60 RA. The class given is cell-based, human. The settings on record: Homo sapiens, 96 h; APML cell line HL-60 RA; four days in culture; Alamar blue assay or automated microscopy; ± SD, three experiments. Here is the method:
as §3, §1, §2

The subject of test [19] is NB4 APML cell line. Nature of the test: Cytotoxicity assay, NB4. The settings on record: Homo sapiens, 96 h, four days in culture, Alamar blue assay or automated microscopy, ± SD, three experiments. The class given is cell-based, human. The method, then:
as §3, §1, §2

The subject of test [20] is HL-60 APML cell line. Put plainly: Cytotoxicity assay, HL-60. Type of test: cell-based, human. The settings on record: Homo sapiens, 96 h; APML cell line HL-60; four days in culture; Alamar blue assay or automated microscopy; ± SD, three experiments. Here is the method:
as §3, §1, §2

The test system of test [21] is Patient #5 ALL/AML primary leukemia cells. Nature of the test: Cytotoxicity assay, primary sample Patient #5. The class given is cell-based, human. The settings on record: Homo sapiens, 96 h, read-out: IC50, Patient #5 ALL/AML. The method, then:
as §4, §1, §2

Test [22] deals with Nalm6 B-ALL cell line. Nature of the test: Cytotoxicity assay, Nalm6. The class given is cell-based, human. The note with it: Homo sapiens, NALM-6, 96 h, four days in culture, Alamar blue assay or automated microscopy, ± SD, three experiments. The method, then:
as §3, §1, §2

In the case of `Nc1nc(Nc2ccc(S(N)(=O)=O)cc2)nn1C(=O)c1c(F)cccc1F` [JNJ-7706621], the IC50 in test [1] was 7000 ± 800 nM; in test [2], 1000 ± 500 nM; in [3], 200 ± 90 nM; in test [4], over 10000 nM; in test [6], 700 ± 300 nM; in test [7], 8000 nM. The IC50 in test [8] came out at 2000 ± 600 nM; in [9], 700 nM; in test [10], 800 ± 90 nM; in test [11] it was 1000 nM; in test [12], 7000 ± 500 nM; in test [13] it was 3000 ± 1000 nM. Further, the IC50 in test [14] came to 400 ± 80 nM; in test [15], 1000 ± 100 nM; in test [16], 300 ± 200 nM; in [17], 700 ± 100 nM; in test [18] it was 800 ± 100 nM; in test [19], 2000 ± 900 nM. The IC50 in test [20] was found to be 5000 ± 2000 nM; in test [21], 0.5 nM; in test [22], 1000 ± 100 nM. Besides, the “IC50 values for the normal cells compared with IC50 values for the leukemia cell lines (potential therapeutic window)” value in test [5] is “lower than the IC50 values for the normal cells, but not as pronounced”.

As for `Cc1cc(Nc2cc(N3CCN(C)CC3)nc(/C=C/c3ccccc3)n2)n[nH]1` [ENMD-2076], the IC50 in [1] turned out to be 3000 ± 1000 nM; in [2], 700 ± 200 nM; in test [3], 1000 ± 500 nM; in test [4], 4000 nM; in test [6], 500 ± 400 nM; in test [7], 10000 nM. Further, the IC50 in test [8] is 40 ± 20 nM; in test [9], 8 nM; in test [10], 1 ± 0.1 nM; in [11] it was 100 nM; in [12], 5000 ± 3000 nM; in [13], 800 ± 200 nM. Further, the IC50 in test [14] came to 600 ± 300 nM; in [15] it was 1000 ± 300 nM; in test [16], 600 ± 50 nM; in [17], 800 ± 50 nM; in test [18] it was 700 ± 200 nM; in test [19] it was 1000 ± 600 nM. The IC50 in test [20] is 700 ± 90 nM; in test [21] (primary sample, four days in culture, Alamar blue assay or automated microscopy, one complete study), 30 nM; in [22], 200 ± 100 nM. Further, the “IC50 values for the normal cells compared with IC50 values for the leukemia cell lines (potential therapeutic window)” value in [5] is on record as “lower than the IC50 values for the normal cells, but not as pronounced”.
